{"source": "patent US20240148809A1", "about": "“CANNABIS PREVENTS NK IN[…] CANCER AND INCREASES NK FUNCTION” (The Regents of the University of California, priority 2020, published 2024)", "key": {"PBMCs (IFN-γ) [1]": {"test_system": "PBMCs (IFN-γ)", "experiment": "ELISPOT for IFN-γ spots in PBMCs of breast cancer patient P38/P77 treated with CBD", "assay_type": "in vivo, human", "conditions": "in words", "method": "FIG. 10A-FIG. 10B show results of an enzyme-linked immunospot (ELISPOT) assay that was conducted to determine the numbers of IFN-γ spots representing the number of cells expressing IFN-γ. Treated (IL2, IL2+antiCD16, IL2+antiCD3/28) and untreated PMBC cells of a breast cancer patient P38 (who was treated with CBD) compared to two healthy control subjects, H43 and H44 (FIG. 10A). Treated (IL2, IL2+antiCD16, IL2+antiCD3/28) and untreated PMBC cells of a breast cancer patient P77 VB (who was treated with CBD) compared to a healthy control subject, H74 (FIG. 10B).\n80 μl of anti-human IFN-γ capture antibody was added to each well of a 96-well high-protein-binding PVDF filter plate and incubated overnight at 4° C. The plate was washed with […] of PBS once before adding samples into the plate. 50,000 cells in 200 μl of RPMI were added into each well and incubate at 37° C., 5% CO2 overnight. After incubation, the plate was washed twice with 200 μl PBS followed by 0.05% 200 μl Tween-PBS twice. […] of anti-human IFN-γ detection antibody was added into each well and incubated at room temperature for 2 hours and the plate was washed three times with 200 μI/well of 0.05% Tween-PBS. 80 μI/well of tertiary solution which was made from 1:1000 diluted Strep-AP was added in the plate and incubated for 30 minutes. […]"}, "[2]": {"test_system": "Oral Squamous Carcinoma Cells (OSCCs)", "experiment": "Cell death assay in OSCCs (loss of forward scatter and propidium iodide staining, flow cytometry)", "assay_type": "cell-based, human", "conditions": "for % PI: Percent cell death induced in total population of tumor cells, as visualized by PI / % decrease in FS: Percent of cells that lost FS in total population of tumor cells: OSCC, overnight", "method": "(§1) Oral Squamous Carcinoma Cells (OSCCs) and stem-like Oral Squamous Carcinoma Stem Cells (OSCSCs) were isolated from tumors of oral cancer patients at UCLA, and cultured in RPMI 1640 supplemented with 10% FBS (Gemini Bio-Products, CA, USA), 1.4% antibiotic antimycotic, 1% sodium pyruvate, 1.4% non-essential amino acids, 1% L-glutamine, 0.2% gentamicin (Gemini Bio-Products, CA, USA), and 0.15% sodium bicarbonate (Fisher Scientific, PA, USA).\n(§2) OSCCs and OSCSCs were treated with different concentrations of Win55,2122-2 and cis-diamminedichloridoplatinum (II) (CDDP) as shown in FIGS. 1A-1B, FIG. 2 and Tables 1 and 2, and cultured overnight at 37 C in 5% CO2.\n(§3) After an overnight incubation the cells were washed twice and stained with Propidium iodide at a concentration of […], as described by Jewett, A., et al., J Immunol, 1997. 159(10): p. 4815-22; Jewett, A. and B. Bonavida, J Clin Immunol, 1995. 15(1): p. 35-44; and Jewett, A. and B. Bonavida, J Immunol, 1996. 156(3): p. 907-15, each of which is incorporated herein by reference in its entirety.\n(§4) Flow cytometric analysis was performed using Attune flow cytometer. Briefly, cells were analyzed based on Forward angle light scatter (FS) and Side scatter (SS), and the proportions of cells that had lost FS and became small were determined in total populations of tumor cells. Untreated and DMSO treated tumors were used as controls. In addition, the proportions of cells that were stained with PI were also determined.\nOSCCs are differentiated oral squamous carcinoma cells; OSCCs were treated with different concentrations of Win55,2122-2, as indicated in FIGS. 1A-1B and Table 1."}, "[3]": {"test_system": "Oral Squamous Carcinoma Stem Cells (OSCSCs)", "experiment": "Cell death assay in OSCSCs (loss of forward scatter and propidium iodide staining, flow cytometry)", "assay_type": "cell-based, human", "conditions": "for % PI: propidium iodide staining / % of decrease in FS: Percent of cells that lost FS in total population of tumor cells: overnight", "method": "as §1, §2, §3, §4\nOSCSCs are stem like oral squamous carcinoma cells; OSCSCs were treated with different concentrations of Win55,2122-2, as indicated in FIG. 2 and Table 2."}, "[4]": {"test_system": "NK cells in PBMCs (cytotoxicity against OSCSCs)", "experiment": "51Cr release assay with PBMCs of treated hu-BLT mice against OSCSCs", "assay_type": "in vivo", "conditions": "IP for 27 days, PBMCs treated with IL-2 overnight, in words", "method": "(§5) PBMCs (FIG. 11A and FIG. 11B) and CD3+ T cells (FIG. 11C) were isolated from hu-BLT mice after treatment of WIN 55,212-2 (intraperitoneal (IP) injection every 2 days at 2 mg/Kg in DMSO+saline for 27 days before sacrifice) or IL-15 (IP injection of 5 μg per mice for 27 days). PBMCs were isolated from peripheral blood and treated with IL-2 (1000 u/ml) overnight before they were used in 51 Cr release assay. The Lytic units (LU) 30/10^6 cells were determined by plotting the % cytotoxicity obtained at different effector to target ratios, and using that curve to determine the inverse number of NK cells required to lyse 30% of OSCSCs×100. The numbers of LU were then adjusted based on the % of NK cells obtained by flow cytometric analysis (FIG. 11A). PBMCs and CD3+ T cells culture supernatants were collected and IFN-γ secretions were determined using ELISA (FIG. 11B and FIG. 11C). CD3 T cells were isolated from splenocytes by negative selection of CD3+ T cells using an isolation kit (Stem cell technologies)."}, "PBMCs (IFN-γ) [5]": {"test_system": "PBMCs (IFN-γ)", "experiment": "IFN-γ ELISA of PBMC culture supernatants of treated hu-BLT mice", "assay_type": "in vivo", "conditions": "IP for 27 days, in words", "method": "as §5"}, "CD3+ T cells (IFN-γ)": {"test_system": "CD3+ T cells (IFN-γ)", "experiment": "IFN-γ ELISA of culture supernatants of CD3+ T cells from splenocytes of treated hu-BLT mice", "assay_type": "in vivo", "conditions": "IP for 27 days, in words", "method": "as §5"}}}
{"compound": "C=C(C)[C@@H]1CCC(C)=C[C@H]1c1c(O)cc(CCCCC)cc1O", "note": "[CBD, Cannabidiol]", "values": [{"measurement": "PBMC expression of IFN-γ (ELISPOT) compared to healthy control", "setting": "PBMCs (IFN-γ) [1]", "value": "Comparable"}]}
{"compound": "N.N.[Cl][Pt][Cl]", "note": "[CDDP, cis-diamminedichloridoplatinum (II)]", "values": [{"measurement": "% PI: Percent cell death induced in total population of tumor cells, as visualized by PI", "setting": "[2]; 30 μg/ml", "value": 23.8, "unit": "%"}, {"measurement": "% decrease in FS: Percent of cells that lost FS in total population of tumor cells", "setting": "[2]; 30 μg/ml", "value": 51, "unit": "%"}, {"measurement": "% PI: Percent cell death induced in total population of tumor cells, as visualized by PI", "setting": "[2]; 50 μg/ml", "value": 18.9, "unit": "%"}, {"measurement": "% decrease in FS: Percent of cells that lost FS in total population of tumor cells", "setting": "[2]; 50 μg/ml", "value": 53, "unit": "%"}]}
{"compound": "CS(=O)(=O)O.Cc1c(C(=O)c2cccc3ccccc23)c2cccc3c2n1[C@H](CN1CCOCC1)CO3", "note": "[Win55,2122-2, (R)-(+)-[2,3-Dihydro-5-methyl-3-(4-morpholinylmethyl)pyrrolo[1,2,3-de]-1,4-benzoxazin-6-yl]-1-naphthalenylmethanone mesylate]", "values": [{"measurement": "% PI: Percent cell death induced in total population of tumor cells, as visualized by PI", "setting": "[2]; 5 μM", "value": 23.1, "unit": "%"}, {"measurement": "% decrease in FS: Percent of cells that lost FS in total population of tumor cells", "setting": "[2]; 5 μM", "value": 52, "unit": "%"}, {"measurement": "% PI: Percent cell death induced in total population of tumor cells, as visualized by PI", "setting": "[2]; 25 μM", "value": 32.9, "unit": "%"}, {"measurement": "% decrease in FS: Percent of cells that lost FS in total population of tumor cells", "setting": "[2]; 25 μM", "value": 75, "unit": "%"}, {"measurement": "% PI: Percent cell death induced in total population of tumor cells, as visualized by PI", "setting": "[2]; 50 μM", "value": 51.6, "unit": "%"}, {"measurement": "% decrease in FS: Percent of cells that lost FS in total population of tumor cells", "setting": "[2]; 50 μM", "value": 78, "unit": "%"}, {"measurement": "% PI: Percent cell death induced in total population of tumor cells, as visualized by PI", "setting": "[2]; 100 μM", "value": 51.6, "unit": "%"}, {"measurement": "% decrease in FS: Percent of cells that lost FS in total population of tumor cells", "setting": "[2]; 100 μM", "value": 77, "unit": "%"}, {"measurement": "induction of cell death in differentiated oral tumors", "setting": "[2]; OSCCs, in words", "value": "potent inducer of cell death"}, {"measurement": "% PI: propidium iodide staining", "setting": "[3]; 5 μM", "value": 11.5, "unit": "%"}, {"measurement": "% of decrease in FS: Percent of cells that lost FS in total population of tumor cells", "setting": "[3]; 5 μM", "value": 15, "unit": "%"}, {"measurement": "% PI: propidium iodide staining", "setting": "[3]; 25 μM", "value": 26.3, "unit": "%"}, {"measurement": "% of decrease in FS: Percent of cells that lost FS in total population of tumor cells", "setting": "[3]; 25 μM", "value": 24, "unit": "%"}, {"measurement": "% PI: propidium iodide staining", "setting": "[3]; 50 μM", "value": 21.7, "unit": "%"}, {"measurement": "% of decrease in FS: Percent of cells that lost FS in total population of tumor cells", "setting": "[3]; 50 μM", "value": 16, "unit": "%"}, {"measurement": "cell death by staining with PI", "setting": "[3]; compared to untreated or DMSO treated tumors, in words", "value": "no or moderate levels of cell death"}, {"measurement": "change of FS", "setting": "[3]; even at the higher concentrations, in words", "value": "did not change FS"}, {"measurement": "NK cell mediated cytotoxicity in PBMC", "setting": "[4]", "value": "higher"}, {"measurement": "IFN-γ secretion in PBMC", "setting": "PBMCs (IFN-γ) [5]", "value": "higher"}, {"measurement": "IFN-γ secretion in CD3+ T cells", "setting": "CD3+ T cells (IFN-γ)", "value": "higher"}]}
{"compound": "IL-15: IL-15, IP injection of 5 μg per mice for 27 days in hu-BLT mice", "values": [{"measurement": "NK cell mediated cytotoxicity in PBMC", "setting": "[4]", "value": "higher"}, {"measurement": "IFN-γ secretion in CD3+ T cells", "setting": "CD3+ T cells (IFN-γ)", "value": "higher"}]}
